Assays:
db/db mutant mice = experiment: Oral administration in the early intervention treatment of type 2 diabetes in db/db mutant mice; type: in vivo; settings: day 12
Description: Five week-old female db/db mutant mice (C57BL/KsJ-db +/+ m; Jackson Labs) were housed in a fixed 12-12-hr artificial light-dark cycle, and maintained on a standard high fat diet (containing at least 11% crude fat) provided ad libitum (Teklad S-2335). Animals were allowed two days to acclimate in this experimental environment prior to the initiation of the study.
Prior to initiation of treatment, the animals were bled from the tail vein (100–200 μL of whole blood) and serum levels of glucose and triglycerides were measured in duplicate (Trinder kits; Sigma, St. Louis, Mo.). Based on these initial measures, animals (not yet hyperglycemic) were sorted into groups with approximately the same average serum glucose levels. Once sorted, the animals were housed six per cage and provided high fat rodent diet ad libitum. • Experiment I: (Compound 1) • Treatment groups (n=6/group): • 1) db/db control (sesame oil) • 2) Compound 1 (0.3 mg/kg; twice daily) • 3) Compound 1 (1 mg/kg; twice daily) • Experiment II: (Compound 32) • Treatment groups (n=6/group): • 1) db/db control (sesame oil) • 2) Compound 32 (0.3 mg/kg; once daily) • 3) Compound 32 (1 mg/kg; once daily) • 4) Compound 32 (3 mg/kg; once daily) • 3) Rosiglitazone (1 mg/kg; only daily)
Drug is prepared by mixing Compound 1 or 32 in sesame oil, and administered to animals in a volume of 5 ml/kg/dose. Drug is administered by oral gavage daily at the beginning (Compound 1 and 32) and end of the artificial dark cycle (Compound 1; 12 hour interval).
(§1) To monitor the effect of Compound 1 or 32, animals were bled following a three-hour fast at the end of the dark cycle on days 12 of the treatment period. Fasting serum glucose and triglyceride levels were measured in duplicate. The blood is kept at room temperature to allow coagulation, after which the serum is separated and assayed for glucose and triglyceride levels.

ob/ob mutant mice = experiment: Oral administration in the late intervention treatment of type 2 diabetes in ob/ob mutant mice; type: in vivo; settings: oral gavage 5 mg/kg twice daily, p<0.05 vs control; for fasting serum glucose levels: 1 and 2 weeks of treatment; for fasting serum triglyceride levels: two weeks of treatment
Description: Five week-old male ob/ob mutant mice (C57BL/6J-ob; Jackson Labs) were housed in a fixed 12-12-hr artificial light-dark cycle, and maintained on a standard diet provided ad libitum. Animals were allowed two days to acclimate in this experimental environment prior to the initiation of the study.
Prior to initiation of treatment, the animals were bled from the tail vein (100–200 μL of whole blood) and serum levels of glucose and triglycerides were measured in duplicate (Trinder kits; Sigma, St. Louis, Mo.). Based on these initial measures, hyperglycemic animals were sorted into groups with approximately the same average serum glucose levels. Once sorted, the animals were housed six per cage and provided standard rodent diet ad libitum. • Treatment groups (n=6/group): • 1) ob/ob control (sesame oil) • 2) Compound 1 (5mg/kg twice daily)
Drug is prepared by mixing Compound 1 in sesame oil, and administered to animals in a volume of 3 ml/kg/dose. Drug is administered by oral gavage twice daily at the beginning and end of the artificial dark cycle (12 hour interval).
as §1, with “1,” for “1 or 32,”, “7 and 14” for “12”

[1] = young db/db mice, oral gavage, 0.3 or 1 mg/kg twice daily
[2] = young db/db mice, oral gavage, 0.3 or 1 mg/kg twice daily, listed as compound 1
[3] = db/db mice, oral gavage, 0.3, 1 or 3 mg/kg once daily, rosiglitazone 1 mg/kg as comparator
[4] = db/db mice, oral gavage, 0.3, 1 or 3 mg/kg once daily, rosiglitazone 1 mg/kg as comparator, listed as compound 32

| Structure (SMILES) | fasting serum glucose levels (db/db mutant mice; [1]) | fasting serum triglyceride levels (db/db mutant mice; [1]) | fasting serum glucose levels (db/db mutant mice; [2]) | fasting serum triglyceride levels (db/db mutant mice; [2]) | fasting serum glucose levels (ob/ob mutant mice; 5 mg/kg) | fasting serum glucose levels (ob/ob mutant mice; listed as compound 1, 5 mg/kg) | fasting serum triglyceride levels (ob/ob mutant mice; 5 mg/kg) | fasting serum triglyceride levels (ob/ob mutant mice; listed as compound 1, 5 mg/kg) | fasting serum glucose levels (db/db mutant mice; [3]) | fasting serum triglyceride levels (db/db mutant mice; [3]) | fasting serum glucose levels (db/db mutant mice; [4]) | fasting serum triglyceride levels (db/db mutant mice; [4]) |
| --- | --- | --- | --- | --- | --- | --- | --- | --- | --- | --- | --- | --- |
| COc1ccc(/C=C2\SC(=O)NC2=O)cc1-c1cc2c(cc1C)C(C)(C)CCC2(C)C [Compound 1, 3-(3,5,5,8,8-Pentamethyl-5,6,7,8-tetrahydro-2-naphthyl)-4-methoxybenzylidene-2,4-thiazolidinedione] | remained well within the normal range | remained well within the normal range | prevent increases | prevent increases | significant decrease | reduce | significantly reduced | reduce | – | – | – | – |
| Cc1cc2c(cc1-c1cc(/C=C3\SC(=O)NC3=O)ccc1OC(F)(F)F)C(C)(C)CCC2(C)C [Compound 32, 3-(3,5,5,8,8-Pentamethyl-5,6,7,8-tetrahydro-2-naphthyl)-4-trifluoromethoxybenzylidene-2,4-thiazolidinedione] | – | – | – | – | – | – | – | – | remained well within the normal range | remained well within the normal range | equally or more potent than rosiglitazone | equally or more potent than rosiglitazone |
